Source: US20230398130A1, “METHODS AND COMPOSITIONS FOR DIFFERENTIATING STEM CELLS” (Massachusetts Institute of Technology, priority 2020, published 2023)

Experiments:
[1] = test system: intestinal organoids; test: Population RNA-sequencing of organoids; assay type: cell-based, murine
Procedure: Population RNA-sequencing. Population RNA-seq was performed using a derivative of the Smart-Seq2 protocol for single cells. In brief, organoid media was aspirated and RLT+BME (Qiagen) was added to each well, and plate shaken for 30 minutes to fully lyse. Lysate was aliquoted into 4 identical fractions and stored at −80° C. until reverse transcription. RNA lysate was thawed and cleaned with a 2.2×SPRI ratio using Agencourt RNAClean XP beads (Beckman Coulter, A63987). RNA-seq was performed on a bulk population of […] using Smart-Seq2 chemistry, starting with a 2.2×SPRI ratio cleanup. After oligo-dT priming, Maxima H Minus Reverse Transcriptase (ThermoFisher EP0753) was used to synthesize cDNA with an elongation step at 52° C. before PCR amplification (15 cycles for tissue, 18 cycles for sorted basal cells) using KAPA HiFi PCR Mastermix (Kapa Biosystems KK2602). Sequencing libraries were prepared using the Nextera XT DNA tagmentation kit (Illumina FC-131-1096) with 250 pg input for each sample. Libraries were pooled post-Nextera and cleaned using Agencourt AMPure SPRI beads with successive 0.7× and 0.8× ratio SPRIs and sequenced with an Illumina 75 Cycle NextSeq500/550v2 kit (Illumina FC-404-2005) with loading density at 2.2 pM, with paired end 35 cycle read structure. Samples were sequenced at an average read depth of 8.44 million reads per sample and a total of 96 samples.
Organoid samples were aligned to the Mm10 genome and transcriptome using STAR and RSEM. […] For module scoring with the in vivo Paneth and enteroendocrine cell-defining genes, Applicants used previously published gene sets and computed persample module scores through the Seurat package.

[2] = In vivo oral gavage of KPT-330 every other day for two weeks: body weight; design: species or system C57BL/6 wild-type mice
Procedure: Following a similar protocol as previously reported for SINE treatment in the context of cancer (Arango et al., 2017; Azmi et al., 2013; Hing et al., 2016; Zheng et al., 2014), KPT-330 was administered at a dose 10 mg/kg via oral gavage every other day over a two-week span in C57BL/6 wild-type mice, and body weight was monitored for any clear toxicity. […] Given animal weight loss on the standard chemotherapeutic dosage regimen, and additional evidence that sustained dosage of SINEs adversely impacts T cell populations (Tyler et al., 2017), Applicants sought to explore dosing regimens well below 10 mg/kg, to see if a pro-Paneth phenotype may exist below potential toxicities. […] Applicants tracked animal weight every other day, and at day 14 collected the proximal and distal thirds of the small intestine for histological quantification of Paneth, stem, and goblet populations (FIG. 26A). […] Paneth cells were counted within well preserved crypts, with at minimum 30 crypts quantified per animal (representative images FIG. 30C) and then averaged to get mean Paneth cells per crypt in distal and proximal thirds of the small intestine. […] Applicants additionally quantified the abundance of Olfm4+ stem cells as well as PAS+ goblet cells within the same animals to ascertain whether the effect of SINE treatment was restricted to the Paneth cell compartment (representative images FIG. 30D,E). […]

For `O=C(/C=C\n1cnc(-c2cc(C(F)(F)F)cc(C(F)(F)F)c2)n1)NNc1cnccn1` [KPT-330], the “secretory cell identity (Paneth, goblet, EEC) from bulk transcripts” value ([1]; ENR+CV, ENR+CD or ENR organoids) was “increase secretory cells (Paneth, goblet, and EEC)”, the “number of differentially expressed genes” value ([1]; hits compared, ENR and ENR+CD) was “the most differentially expressed genes” and the body weight ([2]; 0.01, 0.05 or 0.2 mg/kg oral gavage every other day) was “no significant changes in animal weight at any dose”. For the same compound, the body weight ([2]; 10 mg/kg oral gavage every other day) was “significant weight loss indicative of toxicity”.
